Earlier results on one molecule are cited in patent US8309122B2 (Endo Pharmaceuticals Inc., priority 2001, dated 2012).

For the data set the following is noted: metabolized principally in the liver.

Consider `CN1CC[C@]23c4c5ccc(O)c4O[C@H]2C(=O)CC[C@@]3(O)[C@H]1C5.Cl` [Oxymorphone, 14-hydroxydihydromorphinone hydrochloride], for which the oral bioavailability entry was “about 10%”.
